Experimental data from ChEMBL document CHEMBL1201862, “PubChem BioAssay data set” (2004).
Activity calls are given as the source filed them.

Assays:
[1] = molecular target: Benomyl/methotrexate resistance protein (Candida albicans, UniProt P28873); experiment: Candida albicans Mdr1 pump inhibition curves – singleplex, Cherry Pick1 hits, dose response (AID 588608); assay type: functional
[2] = molecular target: Multidrug resistance protein CDR1 (Candida albicans, UniProt P43071); experiment: inhibition of Nile Red efflux via Candida CDR1 – S. cerevisiae AD1-8u, singleplex, Cherry Pick1 hits, dose response (AID 588606); assay type: functional
[3] = molecular target: Multidrug resistance protein CDR2 (Candida albicans (strain SC5314 / ATCC MYA-2876) (Yeast), UniProt P78595); experiment: inhibition of Nile Red efflux via Candida CDR2 – S. cerevisiae AD1-8u, singleplex, Cherry Pick1 hits, dose response (AID 588604); assay type: functional
Sequence of Multidrug resistance protein CDR2 (P78595 whole entry): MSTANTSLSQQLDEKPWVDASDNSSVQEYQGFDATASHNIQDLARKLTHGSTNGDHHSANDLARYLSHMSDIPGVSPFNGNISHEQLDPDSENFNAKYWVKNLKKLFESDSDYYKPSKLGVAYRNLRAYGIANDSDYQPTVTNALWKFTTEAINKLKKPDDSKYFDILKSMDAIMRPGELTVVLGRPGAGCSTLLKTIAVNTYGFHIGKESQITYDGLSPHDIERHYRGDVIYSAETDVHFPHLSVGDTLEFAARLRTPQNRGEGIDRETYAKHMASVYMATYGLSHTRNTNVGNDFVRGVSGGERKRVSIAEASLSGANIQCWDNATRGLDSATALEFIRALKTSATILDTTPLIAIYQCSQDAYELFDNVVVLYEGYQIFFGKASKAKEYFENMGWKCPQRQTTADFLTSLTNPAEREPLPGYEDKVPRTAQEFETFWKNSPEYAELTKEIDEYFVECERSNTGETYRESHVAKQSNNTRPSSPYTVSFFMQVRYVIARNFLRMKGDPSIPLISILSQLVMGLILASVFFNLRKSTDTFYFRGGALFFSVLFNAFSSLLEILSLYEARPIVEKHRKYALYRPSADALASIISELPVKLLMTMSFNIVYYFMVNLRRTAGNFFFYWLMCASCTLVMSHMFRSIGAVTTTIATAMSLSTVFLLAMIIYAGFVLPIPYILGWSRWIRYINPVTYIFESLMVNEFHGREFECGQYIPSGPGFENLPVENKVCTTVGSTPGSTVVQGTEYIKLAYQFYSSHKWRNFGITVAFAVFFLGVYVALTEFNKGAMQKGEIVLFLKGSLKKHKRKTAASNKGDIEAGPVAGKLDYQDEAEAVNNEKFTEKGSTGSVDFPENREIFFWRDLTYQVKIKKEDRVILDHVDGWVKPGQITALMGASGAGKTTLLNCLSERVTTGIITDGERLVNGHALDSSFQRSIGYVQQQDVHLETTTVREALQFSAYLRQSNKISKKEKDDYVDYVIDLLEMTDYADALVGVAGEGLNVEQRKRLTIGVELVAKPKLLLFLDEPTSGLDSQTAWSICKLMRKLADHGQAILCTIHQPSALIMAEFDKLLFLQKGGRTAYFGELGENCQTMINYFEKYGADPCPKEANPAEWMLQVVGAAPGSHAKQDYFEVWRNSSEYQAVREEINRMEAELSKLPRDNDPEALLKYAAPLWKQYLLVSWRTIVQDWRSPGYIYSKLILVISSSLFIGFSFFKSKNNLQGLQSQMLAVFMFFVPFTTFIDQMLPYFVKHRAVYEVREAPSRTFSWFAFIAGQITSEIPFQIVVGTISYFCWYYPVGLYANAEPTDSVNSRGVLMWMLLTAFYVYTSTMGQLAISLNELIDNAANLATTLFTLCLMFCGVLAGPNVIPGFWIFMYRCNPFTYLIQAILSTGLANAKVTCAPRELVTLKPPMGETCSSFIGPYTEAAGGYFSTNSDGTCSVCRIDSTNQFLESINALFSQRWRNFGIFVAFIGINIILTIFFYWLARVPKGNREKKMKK

Beta-galactosidase = Beta-galactosidase (Escherichia coli, UniProt Q8VNN2); experiment: Dose response counterscreen for EBI2 assay utilizing the enzyme, b-galactosidase.; assay type: functional
[4] = luciferase reporter signal suppression in cells – H4 neuroglioma cells, luminescence, dose response (AID 1990); assay type: functional, cell-based
BJ [5] = experiment: BJ-TERT fibroblast viability loss – cell-based, RAS-independent, luminescence, dose response (AID 1933); assay type: functional; conditions: Homo sapiens
[6] = Luminescence Cell-Based Dose Response HTS to Identify Inhibitors of 5'UTR Stem-Loop Driven Prion Protein mRNA Translation in H4 Neuroglioblastoma Cells. [Related pubchem assays: 1827 (Project Summary), 1813 (Primary HTS)]; assay type: functional
[7] = alpha-synuclein stem-loop luciferase translation blockers – H4 neuroglioma cells, luminescence, confirmation (AID 1988); assay type: functional, cell-based
BJ [8] = experiment: cells; assay type: functional, cell-based; conditions: Homo sapiens
BJ [9] = experiment: BJ-TERT-LT-ST fibroblast viability loss – cell-based, RAS-independent, luminescence, dose response (AID 1935); assay type: functional; conditions: Homo sapiens;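 further: BJ fibroblasts immortalized with TERT plus LT and ST oncogenes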
[10] = DRD fibroblast viability loss – cell-based, non-viral oncogenic, luminescence, dose response (AID 1934); assay type: functional; conditions: Homo sapiens
[11] = molecular target: T1, Heat shock factor protein 1 (Mus musculus, UniProt P38532); experiment: enhancement of HSF1-driven luciferase signal – cell-based, NIH3T3, luminescence, dose retest, confirmation (AID 435004); assay type: functional;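 further: stress induced by proteasome inhibitor MG132 added 30 min after compound; luciferase reporter driven by HSF1 response element in NIH3T3 cells; actives raise luminescence as potentiators of the MG132 stress response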
T1 sequence (P38532 whole entry): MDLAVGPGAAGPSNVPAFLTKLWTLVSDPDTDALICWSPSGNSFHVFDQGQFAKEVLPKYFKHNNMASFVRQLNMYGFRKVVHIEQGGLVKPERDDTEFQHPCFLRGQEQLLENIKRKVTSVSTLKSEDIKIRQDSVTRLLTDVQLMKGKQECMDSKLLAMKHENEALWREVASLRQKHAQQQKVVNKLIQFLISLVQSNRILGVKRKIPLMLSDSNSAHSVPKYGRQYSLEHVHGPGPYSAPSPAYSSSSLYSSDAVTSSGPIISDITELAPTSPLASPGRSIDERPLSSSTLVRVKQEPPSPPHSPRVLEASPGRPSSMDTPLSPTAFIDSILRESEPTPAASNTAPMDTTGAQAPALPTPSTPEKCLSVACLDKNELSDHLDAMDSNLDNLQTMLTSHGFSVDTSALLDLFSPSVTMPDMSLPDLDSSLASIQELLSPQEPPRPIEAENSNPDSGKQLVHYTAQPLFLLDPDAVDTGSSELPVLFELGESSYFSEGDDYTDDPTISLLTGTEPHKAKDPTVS

Vero [12] = experiment: cells; assay type: functional, cell-based; conditions: Chlorocebus sabaeus
BJ [13] = experiment: growth inhibition of engineered Ras-driven BJ cells – cell-based, alamar blue fluorescence, cherrypicked samples, dose response (AID 2631); assay type: functional; conditions: Homo sapiens;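 further: confirmatory dose-response assay in RAS-dependent BJ fibroblasts engineered with TERT, LT and ST, with cytotoxicity read by fluorescence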
INS1 = experiment: INS-1E survival protection against cytokine death – cell-based, luminescence, retest, dose response (AID 449756); assay type: functional; conditions: Rattus norvegicus, INS1;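 further: cell death triggered by IL-1 beta plus TNF-alpha plus IFN-gamma mixture; protective hits raise ATP signal compared with cytokine alone wells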
Vero [14] = experiment: cells; assay type: functional; conditions: Chlorocebus sabaeus
[15] = molecular target: Protein disulfide-isomerase (Homo sapiens, UniProt P07237); experiment: inhibition of PDI-driven insulin aggregation – biochemical, turbidity, absorbance, cherry-picked samples, dose response (AID 602350); assay type: functional
Sequence of Protein disulfide-isomerase (P07237 whole entry, the tested form may be a part): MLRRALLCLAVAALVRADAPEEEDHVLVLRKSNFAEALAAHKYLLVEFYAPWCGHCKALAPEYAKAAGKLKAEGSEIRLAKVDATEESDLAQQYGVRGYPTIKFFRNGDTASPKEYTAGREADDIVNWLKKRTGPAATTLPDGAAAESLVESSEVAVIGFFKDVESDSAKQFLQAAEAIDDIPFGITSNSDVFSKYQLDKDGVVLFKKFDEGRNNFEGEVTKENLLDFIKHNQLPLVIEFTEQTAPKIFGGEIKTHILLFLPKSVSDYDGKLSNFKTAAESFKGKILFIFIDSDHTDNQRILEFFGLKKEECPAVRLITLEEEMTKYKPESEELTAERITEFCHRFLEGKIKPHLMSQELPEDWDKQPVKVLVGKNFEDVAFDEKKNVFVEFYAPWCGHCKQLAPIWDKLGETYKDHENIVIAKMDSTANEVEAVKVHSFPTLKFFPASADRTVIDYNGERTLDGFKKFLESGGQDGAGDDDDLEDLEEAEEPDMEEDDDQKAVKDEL

[16] = Fluorescence-based cell-based high throughput dose response assay for inhibitors of the interaction of nucleotide-binding oligomerization domain containing 2 (NOD2) and the receptor-interacting serine-threonine kinase 2 (RIPK2).; assay type: functional; conditions: Homo sapiens
[17] = viability loss in HEK293T cells – cell-based, cherry-picks, cytotoxicity control for HIV Vif inhibitor project, dose response (AID 652208); assay type: functional
Paired box protein Pax-8 = Paired box protein Pax-8 (Homo sapiens, UniProt Q06710); experiment: PAX8 transcriptional activity inhibition in RMG-I – RMG-I cells, luciferase, cherry-pick, dose response (AID 687027); assay type: functional, cell-based;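 further: luciferase reporter driven by Pax8 target thyroperoxidase promoter measured by SteadyGlo luminescence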
[18] = inhibitors acting on PAX2 in cells – cell-based, plate reader, dry powder samples, selectivity assay for PAX8 inhibitor project, dose response (AID 743048); assay type: functional;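 further: HEK293 cells carrying a WT1 promoter luciferase reporter driven by expressed Pax2; potency is for inhibition of Pax2 driven reporter signal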
[19] = COV362 cell viability loss – plate reader, dry powder, SA12, cytotoxicity control for PAX8 inhibitor project, dose response (AID 743144); assay type: functional, cell-based
[20] = toxicity toward immortalized ovarian surface epithelium – cell-based, plate reader, dry powder samples, cytotoxicity control for PAX8 inhibitor project, dose response (AID 743045); assay type: functional
[21] = A2780 cell killing – plate reader, dry powder samples, cytotoxicity control, dose response (AID 743046); assay type: functional, cell-based
[22] = OVCAR-3 cell viability loss – plate reader, dry powder samples, PAX8 inhibitor project, dose response (AID 743044); assay type: functional, cell-based
[23] = PAX5 cellular inhibition readout – cell-based, plate reader, dry powder samples, selectivity assay for PAX8 inhibitor project, dose response (AID 743047); assay type: functional;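 further: HEK293 cells carrying a Pax5 driven CD19 promoter luciferase reporter; potency of inhibitors that lower reporter luminescence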
[24] = IGROV1 cell killing – plate reader, dry powder samples, PAX8 inhibitor project, dose response (AID 743043); assay type: functional, cell-based; conditions: IGROV-1
[25] = OVCAR4 cell viability loss – plate reader, dry powder, SA11, cytotoxicity control for PAX8 inhibitor project, dose response (AID 743150); assay type: functional, cell-based; conditions: OVCAR-4
[26] = COV434 cell viability loss – plate reader, dry powder, SA7, cytotoxicity control for PAX8 inhibitor project, dose response (AID 743145); assay type: functional, cell-based
[27] = OV-90 cell viability loss – plate reader, dry powder, SA8, PAX8 inhibitor project, dose response (AID 743149); assay type: functional, cell-based
[28] = PAX8-dependent cell viability loss – plate reader, dry powder, dose response (AID 743049); assay type: functional, cell-based
[29] = molecular target: Serine/threonine-protein kinase TBK1 (Homo sapiens, UniProt Q9UHD2); experiment: Navigating the Kinome. Panel member name: TBK1; assay type: functional
Sequence of Serine/threonine-protein kinase TBK1 (Q9UHD2 whole entry): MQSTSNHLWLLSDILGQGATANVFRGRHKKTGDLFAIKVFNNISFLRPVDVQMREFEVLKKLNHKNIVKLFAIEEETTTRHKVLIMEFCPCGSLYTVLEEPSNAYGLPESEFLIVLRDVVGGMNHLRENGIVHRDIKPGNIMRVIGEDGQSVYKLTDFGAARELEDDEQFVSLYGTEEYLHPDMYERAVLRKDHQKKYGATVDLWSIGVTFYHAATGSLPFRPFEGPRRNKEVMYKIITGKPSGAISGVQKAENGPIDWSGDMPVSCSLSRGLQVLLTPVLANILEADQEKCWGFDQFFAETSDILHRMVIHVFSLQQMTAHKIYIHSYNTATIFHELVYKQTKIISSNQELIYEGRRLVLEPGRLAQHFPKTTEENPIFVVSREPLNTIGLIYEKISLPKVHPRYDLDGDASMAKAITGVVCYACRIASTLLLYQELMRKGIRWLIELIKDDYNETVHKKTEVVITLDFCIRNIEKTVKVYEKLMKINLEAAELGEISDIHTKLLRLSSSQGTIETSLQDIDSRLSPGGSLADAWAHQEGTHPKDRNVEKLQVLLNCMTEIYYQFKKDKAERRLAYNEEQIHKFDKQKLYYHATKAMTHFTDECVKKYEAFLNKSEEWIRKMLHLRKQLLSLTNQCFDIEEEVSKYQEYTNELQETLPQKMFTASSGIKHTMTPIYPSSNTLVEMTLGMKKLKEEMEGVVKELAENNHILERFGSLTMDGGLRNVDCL

[30] = molecular target: 5'-AMP-activated protein kinase catalytic subunit alpha-1 (Homo sapiens, UniProt Q13131); assay type: functional
[31] = molecular target: Tyrosine-protein kinase receptor TYRO3 (Homo sapiens, UniProt Q06418); assay type: functional;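 further: TYRO3 value obtained as one member of a kinome-wide profiling panel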
[32] = molecular target: Death-associated protein kinase 3 (Homo sapiens, UniProt O43293); assay type: functional;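 further: measured as one member of a kinome-wide profiling panel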
Activin receptor type-1 = Activin receptor type-1 (Homo sapiens, UniProt Q04771); experiment: Navigating the Kinome. Panel member name: ACVR1; assay type: functional
Aurora kinase A = Aurora kinase A (Homo sapiens, UniProt O14965); assay type: functional;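 further: value from the Navigating the Kinome kinase panel profiling, panel entry STK6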
LIM domain kinase 1 = LIM domain kinase 1 (Homo sapiens, UniProt P53667); experiment: Navigating the Kinome. Panel member name: LIMK1; assay type: functional
Sequence of LIM domain kinase 1 (P53667 whole entry, the tested form may be a part): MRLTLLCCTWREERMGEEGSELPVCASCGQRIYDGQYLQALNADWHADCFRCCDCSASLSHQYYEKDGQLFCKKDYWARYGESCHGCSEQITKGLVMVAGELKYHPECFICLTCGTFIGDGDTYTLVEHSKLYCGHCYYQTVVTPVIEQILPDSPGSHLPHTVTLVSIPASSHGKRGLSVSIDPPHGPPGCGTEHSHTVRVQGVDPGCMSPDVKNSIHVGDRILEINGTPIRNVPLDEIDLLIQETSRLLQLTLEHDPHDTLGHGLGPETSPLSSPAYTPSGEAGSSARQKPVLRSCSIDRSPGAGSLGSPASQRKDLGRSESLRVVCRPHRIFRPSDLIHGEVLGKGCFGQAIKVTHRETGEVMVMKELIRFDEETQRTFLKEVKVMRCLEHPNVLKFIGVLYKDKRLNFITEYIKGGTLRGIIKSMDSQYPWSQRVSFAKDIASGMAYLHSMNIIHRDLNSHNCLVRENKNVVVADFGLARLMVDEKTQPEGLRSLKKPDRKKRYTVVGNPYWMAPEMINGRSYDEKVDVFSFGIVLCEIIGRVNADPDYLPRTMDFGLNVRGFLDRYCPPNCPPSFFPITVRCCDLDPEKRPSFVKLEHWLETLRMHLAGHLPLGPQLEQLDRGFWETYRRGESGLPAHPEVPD

[33] = molecular target: Cyclin-dependent kinase 5 (Homo sapiens, UniProt Q00535); assay type: functional;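 further: CDK5 measured as one member of a kinase profiling panel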
[34] = molecular target: Dual specificity tyrosine-phosphorylation-regulated kinase 1B (Homo sapiens, UniProt Q9Y463); experiment: Navigating the Kinome. Panel member name: DYRK1B; assay type: functional
[35] = molecular target: cAMP-dependent protein kinase catalytic subunit PRKX (Homo sapiens, UniProt P51817); assay type: functional
[36] = molecular target: Platelet-derived growth factor receptor alpha (Homo sapiens, UniProt P16234); experiment: Navigating the Kinome. Panel member name: PDGFRA; assay type: functional
[37] = molecular target: Leucine-rich repeat serine/threonine-protein kinase 2 (Homo sapiens, UniProt Q5S007); assay type: functional;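 further: value from a broad kinome-wide panel profiling study in which LRRK2 was one of the kinases tested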
[38] = molecular target: Serine/threonine-protein kinase Nek2 (Homo sapiens, UniProt P51955); assay type: functional
[39] = molecular target: Cyclin-dependent kinase 8 (Homo sapiens, UniProt P49336); experiment: Navigating the Kinome. Panel member name: CDK8; assay type: functional
Sequence of Cyclin-dependent kinase 8 (P49336 whole entry): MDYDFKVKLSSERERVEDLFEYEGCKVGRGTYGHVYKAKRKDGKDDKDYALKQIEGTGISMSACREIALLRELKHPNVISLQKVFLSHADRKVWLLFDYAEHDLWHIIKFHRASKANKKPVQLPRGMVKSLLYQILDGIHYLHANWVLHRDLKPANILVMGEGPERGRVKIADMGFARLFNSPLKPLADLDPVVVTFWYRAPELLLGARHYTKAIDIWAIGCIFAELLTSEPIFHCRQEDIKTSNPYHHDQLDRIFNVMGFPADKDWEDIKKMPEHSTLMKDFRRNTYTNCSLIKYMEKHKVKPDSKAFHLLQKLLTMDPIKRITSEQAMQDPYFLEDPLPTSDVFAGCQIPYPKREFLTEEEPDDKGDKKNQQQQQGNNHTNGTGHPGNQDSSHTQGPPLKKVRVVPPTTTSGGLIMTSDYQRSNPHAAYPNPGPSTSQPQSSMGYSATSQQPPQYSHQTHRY

[40] = molecular target: Cyclin-dependent kinase 9 (Homo sapiens, UniProt P50750); assay type: functional;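 further: value from the CDK9 entry of a kinome-spanning kinase panel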
[41] = molecular target: Dual specificity protein kinase CLK4 (Homo sapiens, UniProt Q9HAZ1); assay type: functional
[42] = molecular target: Dual specificity tyrosine-phosphorylation-regulated kinase 1A (Homo sapiens, UniProt Q13627); assay type: functional;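 further: measured against DYRK1A as one member of a broad kinome profiling panel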
[43] = molecular target: Inhibitor of nuclear factor kappa-B kinase subunit epsilon (Homo sapiens, UniProt Q14164); experiment: Navigating the Kinome. Panel member name: IKBKE; assay type: functional
[44] = molecular target: Leukocyte tyrosine kinase receptor (Homo sapiens, UniProt P29376); experiment: Navigating the Kinome. Panel member name: LTK; assay type: functional
[45] = molecular target: RAC-gamma serine/threonine-protein kinase (Homo sapiens, UniProt Q9Y243); assay type: functional
[46] = molecular target: Serine/threonine-protein kinase pim-1 (Homo sapiens, UniProt P11309); assay type: functional
[47] = molecular target: Serine/threonine-protein kinase PAK 1 (Homo sapiens, UniProt Q13153); assay type: functional
[48] = molecular target: Serine/threonine-protein kinase pim-3 (Homo sapiens, UniProt Q86V86); assay type: functional;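 further: value obtained as one member of a broad kinase panel profiling effort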
[49] = molecular target: Receptor-type tyrosine-protein kinase FLT3 (Homo sapiens, UniProt P36888); assay type: functional;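 further: FLT3 was tested as one member of a kinome-wide kinase panel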
[50] = molecular target: MAP kinase-interacting serine/threonine-protein kinase 2 (Homo sapiens, UniProt Q9HBH9); assay type: functional
Sequence of MAP kinase-interacting serine/threonine-protein kinase 2 (Q9HBH9 whole entry): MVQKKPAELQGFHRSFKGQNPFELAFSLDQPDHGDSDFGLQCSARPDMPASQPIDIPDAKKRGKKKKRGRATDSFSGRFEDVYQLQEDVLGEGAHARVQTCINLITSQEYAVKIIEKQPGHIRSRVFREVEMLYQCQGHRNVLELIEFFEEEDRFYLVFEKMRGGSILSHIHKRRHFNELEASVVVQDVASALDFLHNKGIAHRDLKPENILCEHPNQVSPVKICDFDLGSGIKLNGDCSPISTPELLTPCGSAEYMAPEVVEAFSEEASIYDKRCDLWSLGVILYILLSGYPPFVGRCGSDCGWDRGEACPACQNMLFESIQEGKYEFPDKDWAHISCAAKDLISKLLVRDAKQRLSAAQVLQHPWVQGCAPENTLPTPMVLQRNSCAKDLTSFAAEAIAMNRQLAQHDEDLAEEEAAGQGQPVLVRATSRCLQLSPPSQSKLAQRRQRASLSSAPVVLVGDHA

Aurora kinase B = Aurora kinase B (Homo sapiens, UniProt Q96GD4); assay type: functional
[51] = molecular target: Interleukin-1 receptor-associated kinase 4 (Homo sapiens, UniProt Q9NWZ3); assay type: functional
[52] = molecular target: Serine/threonine-protein kinase DCLK1 (Homo sapiens, UniProt O15075); assay type: functional;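 further: affinity for DCLK1 (listed as DCAMKL1) measured as one member of a kinome-wide kinase profiling panel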
[53] = molecular target: Serine/threonine-protein kinase MRCK alpha (Homo sapiens, UniProt Q5VT25); assay type: functional
[54] = molecular target: Serine/threonine-protein kinase BRSK1 (Homo sapiens, UniProt Q8TDC3); assay type: functional;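 further: measured within a kinome-wide kinase panel, with the target listed as KIAA1811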

Sequence of Benomyl/methotrexate resistance protein (P28873 whole entry): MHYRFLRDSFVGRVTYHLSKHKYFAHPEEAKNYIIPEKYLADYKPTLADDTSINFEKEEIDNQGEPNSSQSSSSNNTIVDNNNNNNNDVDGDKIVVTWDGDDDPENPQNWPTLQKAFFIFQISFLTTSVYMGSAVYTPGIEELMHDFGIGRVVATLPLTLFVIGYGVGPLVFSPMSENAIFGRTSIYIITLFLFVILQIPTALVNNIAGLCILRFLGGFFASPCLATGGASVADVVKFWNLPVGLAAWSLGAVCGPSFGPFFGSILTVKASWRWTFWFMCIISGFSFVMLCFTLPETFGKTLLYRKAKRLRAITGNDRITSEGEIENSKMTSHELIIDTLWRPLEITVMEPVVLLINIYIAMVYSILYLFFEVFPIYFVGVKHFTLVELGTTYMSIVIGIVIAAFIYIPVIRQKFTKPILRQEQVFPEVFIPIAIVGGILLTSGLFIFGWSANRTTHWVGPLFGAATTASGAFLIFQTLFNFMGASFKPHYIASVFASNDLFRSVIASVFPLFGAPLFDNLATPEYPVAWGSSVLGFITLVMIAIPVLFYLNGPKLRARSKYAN

For `O=C1C(Cc2ccccc2)Nc2ncnc(N3CCN(c4ccccc4)CC3)c2N1Cc1ccc(Br)cc1` (configuration not stated), the EC50 [1] was 21.2 µM (active), the EC50 [2] was 11.1 µM (active) and the EC50 [3] was 10.8 µM (active). The IC50 (Beta-galactosidase) was 2.54 µM (active).
For `COc1ccc(/C=C2\CN(Cc3ccccc3)C/C(=C\c3ccc(OC)c(O)c3)C2=O)cc1O`, the EC50 [4] was 8.62 µM (inconclusive), the EC50 (BJ [5]) was 2.04 µM (active) and the EC50 [6] was > 120 µM (not active). For the same compound, the EC50 [7] was 9.23 µM (inconclusive), the EC50 (BJ [8]) was 4.4 µM (active) and the EC50 (BJ [9]) was 2.23 µM (active). For the same compound, the EC50 [10] was 2.65 µM (active), the EC50 [11] was 8.35 µM (active) and the IC50 (Vero [12]) was 23.2 µM (active). For the same compound, the EC50 (BJ [13]) was 0.435 µM (active), the AC50 (INS1) was 4.23 µM (active) and the CC50 (Vero [14]) was 2.75 µM (active). For the same compound, the AC50 [15] was 2.98 µM (active), the IC50 [16] was 5.53 µM (active) and the AC50 [17] was 5.24 µM (active). The AC50 (Paired box protein Pax-8) was 4.63 µM (active), the AC50 [18] was 14.2 µM (active) and the AC50 [19] was 4.34 µM (active). For the same compound, the AC50 [20] was 8.94 µM (active), the AC50 [21] was 12.5 µM (active) and the AC50 [22] was 7.31 µM (active). For the same compound, the AC50 [23] was 14.3 µM (active), the AC50 [24] was 21.6 µM (active) and the AC50 [25] was 4.93 µM (active). For the same compound, the AC50 [26] was 4.16 µM (active), the AC50 [27] was 3.79 µM (active) and the AC50 [28] was 9.32 µM (active).
For `Cc1cc(=O)[nH]c2[nH]n(-c3ccccc3)c(=O)c12`, the Ki [29] was 50.1 µM (active), the Ki [30] was 79.4 µM (active) and the Ki [31] was 50.1 µM (active). For the same compound, the Ki [32] was 63.1 µM (active), the Ki (Activin receptor type-1) was 79.4 µM (active) and the Ki (Aurora kinase A) was 50.1 µM (active). The Ki (LIM domain kinase 1) was 12.6 µM (active), the Ki [33] was 50.1 µM (active) and the Ki [34] was 12.6 µM (active). For the same compound, the Ki [35] was 63.1 µM (active), the Ki [36] was 100 µM (active) and the Ki [37] was 39.8 µM (active). For the same compound, the Ki [38] was 50.1 µM (active), the Ki [39] was 39.8 µM (active) and the Ki [40] was 39.8 µM (active). The Ki [41] was 10 µM (active), the Ki [42] was 20 µM (active) and the Ki [43] was 50.1 µM (active). For the same compound, the Ki [44] was 20 µM (active).
In the case of `NC(=O)c1cccc2[nH]c(-c3cccc(NCCN4CCCC4)n3)nc12`, the Ki [45] is reported as > 10 µM (inactive), the Ki [46] is reported as 2 µM (active) and the Ki [47] is reported as > 10 µM (inactive). For the same compound, the Ki (LIM domain kinase 1) was > 10 µM (inactive), the Ki [48] was 1 µM (active) and the Ki [49] was 1.26 µM (active). The Ki [50] was 2.51 µM (active), the Ki (Aurora kinase B) was 1.26 µM (active) and the Ki [51] was > 10 µM (inactive). For the same compound, the Ki [52] was > 10 µM (inactive), the Ki [53] was > 10 µM (inactive) and the Ki [54] was 5.01 µM (active).
